# Data taken from patent US12220440B2, “Drug composition, method for treating infection, disinfecting composition, and drug adjuvant” (priority 2022, dated 2025).
# Like-named read-outs stand apart in the source and are kept apart here. Peptide text beside a SMILES is read from it.
# Assays:
# Type in all cases: cell-based
# [1] = tested on: E. coli (colistin-resistant); assay: MIC, colistin-resistant E. coli clinical isolates, with and without otilonium bromide; details: Escherichia coli
# [2] = tested on: P. aeruginosa (colistin-susceptible); assay: MIC, colistin-susceptible P. aeruginosa isolates, with and without otilonium bromide; details: Pseudomonas aeruginosa
# E. coli J53 = assay: MIC checkerboard dilution assay, otilonium bromide vs. colistin; details: Escherichia coli
# mcr-1-bearing E. coli = assay: LIVE/DEAD cell viability assay, fluorescence microscopy; details: 8 μg/ml of colistin alone
# Method: Fluorescence microscopy quantifies the number of live and dead cells and determines the degree of reduction in colistin concentration in the drug combination required for effective eradication of the test organism. […] However, in the presence of 20 μg/ml of otilonium bromide, 4 μg/ml of colistin eradicates >97% of the bacteria.
structure (smiles),measurement,setting,value
"CCC(C)CCCC(=O)N[C@@H](CCN)C(=O)N[C@H](C(=O)N[C@@H](CCN)C(=O)N[C@H]1CCNC(=O)[C@H]([C@@H](C)O)NC(=O)[C@H](CCN)NC(=O)[C@H](CCN)NC(=O)[C@H](CC(C)C)NC(=O)[C@@H](CC(C)C)NC(=O)[C@H](CCN)NC1=O)[C@@H](C)O (stereo partly drawn) [Colistin] (HELM PEPTIDE1{[CCC(C)CCCC(=O)[*:2]].[Dab].T.[Dab].[Dab].[Dab].[dL].L.[Dab].[Dab].T}$PEPTIDE1,PEPTIDE1,5:R3-11:R2$$$V2.0)",MIC,"[1]; E. coli WZ3920, colistin-resistant, colistin alone, read-out: Colistin MIC, Colistin",4 µg/mL
same,MIC,"[1]; E. coli WZ3920, colistin-resistant, in the presence of 10 ug/ml Ob, read-out: Colistin MIC, Colistin + 10 ug/ml Ob",2 µg/mL
same,MIC,"[1]; E. coli WZ3920, colistin-resistant, in the presence of 20 ug/ml Ob, read-out: Colistin MIC, Colistin + 20 ug/ml Ob",≤ 0.25 µg/mL
same,MIC,"[1]; E. coli WZ3951, colistin-resistant, colistin alone, read-out: Colistin MIC, Colistin",16 µg/mL
same,MIC,"[1]; E. coli WZ3951, colistin-resistant, in the presence of 10 ug/ml Ob, read-out: Colistin MIC, Colistin + 10 ug/ml Ob",8 µg/mL
same,MIC,"[1]; E. coli WZ3951, colistin-resistant, in the presence of 20 ug/ml Ob, read-out: Colistin MIC, Colistin + 20 ug/ml Ob",2 µg/mL
same,MIC,"[1]; E. coli WZ3955, colistin-resistant, colistin alone, read-out: Colistin MIC, Colistin",8 µg/mL
same,MIC,"[1]; E. coli WZ3955, colistin-resistant, in the presence of 10 ug/ml Ob, read-out: Colistin MIC, Colistin + 10 ug/ml Ob",4 µg/mL
same,MIC,"[1]; E. coli WZ3955, colistin-resistant, in the presence of 20 ug/ml Ob, read-out: Colistin MIC, Colistin + 20 ug/ml Ob",1 µg/mL
same,MIC,"[1]; E. coli X2169, colistin-resistant, colistin alone, read-out: Colistin MIC, Colistin",16 µg/mL
same,MIC,"[1]; E. coli X2169, colistin-resistant, in the presence of 10 ug/ml Ob, read-out: Colistin MIC, Colistin + 10 ug/ml Ob",4 µg/mL
same,MIC,"[1]; E. coli X2169, colistin-resistant, in the presence of 20 ug/ml Ob, read-out: Colistin MIC, Colistin + 20 ug/ml Ob",2 µg/mL
same,MIC,"[2]; P. aeruginosa PA01, colistin-susceptible, colistin alone, read-out: Colistin MIC, Colistin",2 µg/mL
same,MIC,"[2]; P. aeruginosa PA01, colistin-susceptible, in the presence of 10 ug/ml Ob, read-out: Colistin MIC, Colistin + 10 ug/ml Ob",0.5 µg/mL
same,MIC,"[2]; P. aeruginosa PA01, colistin-susceptible, in the presence of 20 ug/ml Ob, read-out: Colistin MIC, Colistin + 20 ug/ml Ob",0.25 µg/mL
same,MIC,"[2]; P. aeruginosa PAER 2011-3010, colistin-susceptible, colistin alone, read-out: Colistin MIC, Colistin",2 µg/mL
same,MIC,"[2]; P. aeruginosa PAER 2011-3010, colistin-susceptible, in the presence of 10 ug/ml Ob, read-out: Colistin MIC, Colistin + 10 ug/ml Ob",1 µg/mL
same,MIC,"[2]; P. aeruginosa PAER 2011-3010, colistin-susceptible, in the presence of 20 ug/ml Ob, read-out: Colistin MIC, Colistin + 20 ug/ml Ob",0.25 µg/mL
same,MIC,"[2]; P. aeruginosa PAER 2011-3252, colistin-susceptible, colistin alone, read-out: Colistin MIC, Colistin",2 µg/mL
same,MIC,"[2]; P. aeruginosa PAER 2011-3252, colistin-susceptible, in the presence of 10 ug/ml Ob, read-out: Colistin MIC, Colistin + 10 ug/ml Ob",0.5 µg/mL
same,MIC,"[2]; P. aeruginosa PAER 2011-3252, colistin-susceptible, in the presence of 20 ug/ml Ob, read-out: Colistin MIC, Colistin + 20 ug/ml Ob",0.25 µg/mL
same,MIC,"[2]; P. aeruginosa PAER 2012-1527, colistin-susceptible, colistin alone, read-out: Colistin MIC, Colistin",2 µg/mL
same,MIC,"[2]; P. aeruginosa PAER 2012-1527, colistin-susceptible, in the presence of 10 ug/ml Ob, read-out: Colistin MIC, Colistin + 10 ug/ml Ob",2 µg/mL
same,MIC,"[2]; P. aeruginosa PAER 2012-1527, colistin-susceptible, in the presence of 20 ug/ml Ob, read-out: Colistin MIC, Colistin + 20 ug/ml Ob",0.5 µg/mL
same,MIC,"[2]; P. aeruginosa PAERC 10.296, colistin-susceptible, colistin alone, read-out: Colistin MIC, Colistin",2 µg/mL
same,MIC,"[2]; P. aeruginosa PAERC 10.296, colistin-susceptible, in the presence of 10 ug/ml Ob, read-out: Colistin MIC, Colistin + 10 ug/ml Ob",0.0625 µg/mL
same,MIC,"[2]; P. aeruginosa PAERC 10.296, colistin-susceptible, in the presence of 20 ug/ml Ob, read-out: Colistin MIC, Colistin + 20 ug/ml Ob",0.0625 µg/mL
same,MIC,"[2]; P. aeruginosa PAERC 11.2309, colistin-susceptible, colistin alone, read-out: Colistin MIC, Colistin",2 µg/mL
same,MIC,"[2]; P. aeruginosa PAERC 11.2309, colistin-susceptible, in the presence of 10 ug/ml Ob, read-out: Colistin MIC, Colistin + 10 ug/ml Ob",0.5 µg/mL
same,MIC,"[2]; P. aeruginosa PAERC 11.2309, colistin-susceptible, in the presence of 20 ug/ml Ob, read-out: Colistin MIC, Colistin + 20 ug/ml Ob",2 µg/mL
same,MIC,"[2]; P. aeruginosa PAERC 11.236, colistin-susceptible, colistin alone, read-out: Colistin MIC, Colistin",2 µg/mL
same,MIC,"[2]; P. aeruginosa PAERC 11.236, colistin-susceptible, in the presence of 10 ug/ml Ob, read-out: Colistin MIC, Colistin + 10 ug/ml Ob",0.5 µg/mL
same,MIC,"[2]; P. aeruginosa PAERC 11.236, colistin-susceptible, in the presence of 20 ug/ml Ob, read-out: Colistin MIC, Colistin + 20 ug/ml Ob",0.5 µg/mL
same,MIC,"[2]; P. aeruginosa PAERC 11.603, colistin-susceptible, colistin alone, read-out: Colistin MIC, Colistin",2 µg/mL
same,MIC,"[2]; P. aeruginosa PAERC 11.603, colistin-susceptible, in the presence of 10 ug/ml Ob, read-out: Colistin MIC, Colistin + 10 ug/ml Ob",0.5 µg/mL
same,MIC,"[2]; P. aeruginosa PAERC 11.603, colistin-susceptible, in the presence of 20 ug/ml Ob, read-out: Colistin MIC, Colistin + 20 ug/ml Ob",0.25 µg/mL
same,MIC,"[2]; P. aeruginosa PAERC 12.1478, colistin-susceptible, colistin alone, read-out: Colistin MIC, Colistin",2 µg/mL
same,MIC,"[2]; P. aeruginosa PAERC 12.1478, colistin-susceptible, in the presence of 10 ug/ml Ob, read-out: Colistin MIC, Colistin + 10 ug/ml Ob",0.5 µg/mL
same,MIC,"[2]; P. aeruginosa PAERC 12.1478, colistin-susceptible, in the presence of 20 ug/ml Ob, read-out: Colistin MIC, Colistin + 20 ug/ml Ob",0.125 µg/mL
same,MIC,E. coli J53; 10 μg/ml of otilonium bromide,≤ 0.016 µg/mL
same,MIC,E. coli J53; colistin alone,1 µg/mL
same,live/dead state of cells,mcr-1-bearing E. coli,most or all mcr-1-bearing E. coli strains were alive
